Source: ChEMBL document CHEMBL2406977, “The discovery of PLK4 inhibitors: (E)-3-((1H-Indazol-6-yl)methylene)indolin-2-ones as novel antiproliferative agents” (J Med Chem, 2013)

Key:
Cytochrome P450 2C9 = Cytochrome P450 2C9 (Homo sapiens, UniProt P11712); assay: Inhibition of CYP2C9 (unknown origin) using MFC as substrate after 45 mins by fluorescence assay; assay type: ADME
MDA-MB-468 [1] = assay: Antitumor activity against human MDA-MB-468 cells xenografted in CB-17 SCID mouse assessed as reduction in tumor size at 25 mg/kg, ip qd for 21 days relative to control; assay type: functional; conditions: MDA-MB-468, ip, 504 h, route intraperitoneal, read-out: TGI
[2] = Plasma protein binding in mouse at […] after 4 hrs by equilibrium dialysis method; assay type: ADME, cell-free; conditions: read-out: PPB
[3] = target: Serine/threonine-protein kinase PLK3 (Homo sapiens, UniProt Q9H4B4); assay: Inhibition of PLK3 (unknown origin) by FRET-based homogeneous assay
Sequence of Serine/threonine-protein kinase PLK3 (Q9H4B4 whole entry): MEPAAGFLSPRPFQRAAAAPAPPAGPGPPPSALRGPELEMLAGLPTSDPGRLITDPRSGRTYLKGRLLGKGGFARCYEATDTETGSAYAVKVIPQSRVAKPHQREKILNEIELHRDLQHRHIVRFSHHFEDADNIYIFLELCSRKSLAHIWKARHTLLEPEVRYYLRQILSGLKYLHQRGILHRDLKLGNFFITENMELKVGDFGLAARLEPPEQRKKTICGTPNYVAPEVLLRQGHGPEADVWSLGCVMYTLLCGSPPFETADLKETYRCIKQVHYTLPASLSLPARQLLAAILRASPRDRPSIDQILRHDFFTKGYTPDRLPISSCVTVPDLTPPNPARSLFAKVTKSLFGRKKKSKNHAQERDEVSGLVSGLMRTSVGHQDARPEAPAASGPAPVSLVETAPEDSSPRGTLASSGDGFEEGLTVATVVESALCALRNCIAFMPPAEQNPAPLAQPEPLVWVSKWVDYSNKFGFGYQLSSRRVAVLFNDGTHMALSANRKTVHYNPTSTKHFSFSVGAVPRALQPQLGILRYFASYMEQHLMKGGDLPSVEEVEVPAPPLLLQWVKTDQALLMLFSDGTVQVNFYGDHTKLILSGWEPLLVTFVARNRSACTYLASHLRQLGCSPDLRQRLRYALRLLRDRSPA

[4] = Cmax in SCID mouse at 50 mg/kg, ip; assay type: ADME, organism-based; set-up: dose 50 mg/kg, route intraperitoneal; conditions: in vivo
Aurora kinase A = target: T1, Aurora kinase A (Homo sapiens, UniProt O14965); assay: Inhibition of aurora A (unknown origin) by FRET-based homogeneous assay
T1 sequence (O14965 whole entry): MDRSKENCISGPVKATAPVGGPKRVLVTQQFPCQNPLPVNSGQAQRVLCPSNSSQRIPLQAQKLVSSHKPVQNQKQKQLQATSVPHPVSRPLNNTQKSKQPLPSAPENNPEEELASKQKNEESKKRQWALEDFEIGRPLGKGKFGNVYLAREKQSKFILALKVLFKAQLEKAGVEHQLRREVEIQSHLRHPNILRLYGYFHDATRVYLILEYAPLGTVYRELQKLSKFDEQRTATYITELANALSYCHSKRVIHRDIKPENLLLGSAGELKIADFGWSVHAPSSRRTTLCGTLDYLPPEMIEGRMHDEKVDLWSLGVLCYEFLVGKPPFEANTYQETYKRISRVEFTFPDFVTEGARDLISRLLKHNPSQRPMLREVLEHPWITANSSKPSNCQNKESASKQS

Cytochrome P450 1A2 = target: T2, Cytochrome P450 1A2 (Homo sapiens, UniProt P05177); assay: Inhibition of CYP1A2 (unknown origin) using CEC as substrate after 15 mins by fluorescence assay; assay type: ADME
T2 sequence (P05177 whole entry): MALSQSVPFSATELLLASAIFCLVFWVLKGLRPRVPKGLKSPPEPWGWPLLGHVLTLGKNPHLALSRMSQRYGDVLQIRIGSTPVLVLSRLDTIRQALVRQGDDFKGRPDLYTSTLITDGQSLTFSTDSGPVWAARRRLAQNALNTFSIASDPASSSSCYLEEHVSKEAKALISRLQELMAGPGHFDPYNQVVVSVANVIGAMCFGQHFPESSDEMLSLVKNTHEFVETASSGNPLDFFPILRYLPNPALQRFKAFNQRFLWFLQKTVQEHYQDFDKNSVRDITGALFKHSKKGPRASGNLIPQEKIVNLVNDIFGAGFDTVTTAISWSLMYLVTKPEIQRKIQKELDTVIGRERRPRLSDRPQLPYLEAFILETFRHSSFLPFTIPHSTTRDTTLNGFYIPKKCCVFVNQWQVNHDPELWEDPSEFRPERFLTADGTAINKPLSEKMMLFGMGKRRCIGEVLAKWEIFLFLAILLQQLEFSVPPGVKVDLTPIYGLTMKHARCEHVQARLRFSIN

MDA-MB-468 [5] = assay: Antiproliferative activity against human MDA-MB-468 cells assessed as growth inhibition after 5 days by SRB assay; assay type: functional; conditions: MDA-MB-468, 120 h
Aurora kinase B = Aurora kinase B (Homo sapiens, UniProt Q96GD4); assay: Inhibition of aurora B (unknown origin) by FRET-based homogeneous assay
Sequence of Aurora kinase B (Q96GD4 whole entry): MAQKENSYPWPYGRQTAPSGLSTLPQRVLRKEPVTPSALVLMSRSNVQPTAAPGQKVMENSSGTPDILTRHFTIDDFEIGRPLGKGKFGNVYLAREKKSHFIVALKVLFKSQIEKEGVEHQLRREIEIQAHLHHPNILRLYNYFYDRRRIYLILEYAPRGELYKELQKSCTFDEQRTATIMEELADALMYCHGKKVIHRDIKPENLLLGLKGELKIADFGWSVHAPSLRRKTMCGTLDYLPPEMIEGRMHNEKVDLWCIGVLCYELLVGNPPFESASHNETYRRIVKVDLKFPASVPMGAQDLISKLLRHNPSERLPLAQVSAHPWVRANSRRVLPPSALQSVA

[6] = target: T3, Receptor-type tyrosine-protein kinase FLT3 (Homo sapiens, UniProt P36888); assay: Inhibition of FLT3 (unknown origin) by FRET-based homogeneous assay
T3 sequence (P36888 whole entry): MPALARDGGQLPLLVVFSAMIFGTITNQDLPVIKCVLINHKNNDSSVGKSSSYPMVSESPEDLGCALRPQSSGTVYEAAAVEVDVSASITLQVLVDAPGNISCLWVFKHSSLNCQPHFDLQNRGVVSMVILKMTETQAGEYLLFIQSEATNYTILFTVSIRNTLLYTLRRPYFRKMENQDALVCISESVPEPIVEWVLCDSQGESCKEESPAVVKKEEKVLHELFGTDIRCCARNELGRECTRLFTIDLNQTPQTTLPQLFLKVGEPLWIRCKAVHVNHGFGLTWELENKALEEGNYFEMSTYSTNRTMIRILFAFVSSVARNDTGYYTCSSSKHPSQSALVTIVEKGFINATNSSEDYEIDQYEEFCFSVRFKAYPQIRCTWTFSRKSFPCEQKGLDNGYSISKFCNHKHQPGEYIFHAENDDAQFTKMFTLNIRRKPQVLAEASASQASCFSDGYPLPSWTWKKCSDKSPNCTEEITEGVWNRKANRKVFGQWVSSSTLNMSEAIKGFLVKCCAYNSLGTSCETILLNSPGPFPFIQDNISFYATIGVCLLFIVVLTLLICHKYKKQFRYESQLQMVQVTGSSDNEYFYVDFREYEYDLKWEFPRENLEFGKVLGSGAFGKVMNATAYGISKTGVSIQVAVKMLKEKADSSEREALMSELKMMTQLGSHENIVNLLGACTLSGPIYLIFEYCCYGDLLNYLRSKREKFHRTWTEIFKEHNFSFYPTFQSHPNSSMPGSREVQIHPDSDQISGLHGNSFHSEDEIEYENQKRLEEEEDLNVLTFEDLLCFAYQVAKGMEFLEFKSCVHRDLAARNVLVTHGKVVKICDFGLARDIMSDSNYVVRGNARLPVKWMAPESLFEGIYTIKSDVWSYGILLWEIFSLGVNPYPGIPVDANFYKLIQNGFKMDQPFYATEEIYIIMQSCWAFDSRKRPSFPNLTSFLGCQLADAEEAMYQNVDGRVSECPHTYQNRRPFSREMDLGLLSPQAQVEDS

[7] = AUC in SCID mouse at 50 mg/kg, ip; assay type: ADME, organism-based; set-up: dose 50 mg/kg, route intraperitoneal; conditions: plasma
[8] = target: Serine/threonine-protein kinase PLK1 (Homo sapiens, UniProt P53350); assay: Inhibition of PLK1 (unknown origin) by FRET-based homogeneous assay
Sequence of Serine/threonine-protein kinase PLK1 (P53350 whole entry): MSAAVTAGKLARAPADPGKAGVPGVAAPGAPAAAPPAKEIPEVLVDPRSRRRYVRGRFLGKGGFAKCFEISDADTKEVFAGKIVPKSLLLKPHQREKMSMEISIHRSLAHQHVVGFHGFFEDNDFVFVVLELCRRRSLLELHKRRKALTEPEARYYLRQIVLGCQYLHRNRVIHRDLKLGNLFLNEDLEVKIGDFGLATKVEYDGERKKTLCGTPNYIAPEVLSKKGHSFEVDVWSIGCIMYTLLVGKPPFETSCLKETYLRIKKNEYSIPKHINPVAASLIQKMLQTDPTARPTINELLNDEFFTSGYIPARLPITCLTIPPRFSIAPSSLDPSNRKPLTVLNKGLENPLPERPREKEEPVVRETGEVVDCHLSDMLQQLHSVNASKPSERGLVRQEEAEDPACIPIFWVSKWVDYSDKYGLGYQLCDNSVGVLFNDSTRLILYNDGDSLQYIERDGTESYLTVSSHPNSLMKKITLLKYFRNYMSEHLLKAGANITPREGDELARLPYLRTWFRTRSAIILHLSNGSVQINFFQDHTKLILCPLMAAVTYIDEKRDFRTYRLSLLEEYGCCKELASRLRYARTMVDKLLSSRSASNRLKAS

[9] = target: Vascular endothelial growth factor receptor 2 (Homo sapiens, UniProt P35968); assay: Inhibition of KDR (unknown origin) by FRET-based homogeneous assay
Sequence of Vascular endothelial growth factor receptor 2 (P35968 whole entry): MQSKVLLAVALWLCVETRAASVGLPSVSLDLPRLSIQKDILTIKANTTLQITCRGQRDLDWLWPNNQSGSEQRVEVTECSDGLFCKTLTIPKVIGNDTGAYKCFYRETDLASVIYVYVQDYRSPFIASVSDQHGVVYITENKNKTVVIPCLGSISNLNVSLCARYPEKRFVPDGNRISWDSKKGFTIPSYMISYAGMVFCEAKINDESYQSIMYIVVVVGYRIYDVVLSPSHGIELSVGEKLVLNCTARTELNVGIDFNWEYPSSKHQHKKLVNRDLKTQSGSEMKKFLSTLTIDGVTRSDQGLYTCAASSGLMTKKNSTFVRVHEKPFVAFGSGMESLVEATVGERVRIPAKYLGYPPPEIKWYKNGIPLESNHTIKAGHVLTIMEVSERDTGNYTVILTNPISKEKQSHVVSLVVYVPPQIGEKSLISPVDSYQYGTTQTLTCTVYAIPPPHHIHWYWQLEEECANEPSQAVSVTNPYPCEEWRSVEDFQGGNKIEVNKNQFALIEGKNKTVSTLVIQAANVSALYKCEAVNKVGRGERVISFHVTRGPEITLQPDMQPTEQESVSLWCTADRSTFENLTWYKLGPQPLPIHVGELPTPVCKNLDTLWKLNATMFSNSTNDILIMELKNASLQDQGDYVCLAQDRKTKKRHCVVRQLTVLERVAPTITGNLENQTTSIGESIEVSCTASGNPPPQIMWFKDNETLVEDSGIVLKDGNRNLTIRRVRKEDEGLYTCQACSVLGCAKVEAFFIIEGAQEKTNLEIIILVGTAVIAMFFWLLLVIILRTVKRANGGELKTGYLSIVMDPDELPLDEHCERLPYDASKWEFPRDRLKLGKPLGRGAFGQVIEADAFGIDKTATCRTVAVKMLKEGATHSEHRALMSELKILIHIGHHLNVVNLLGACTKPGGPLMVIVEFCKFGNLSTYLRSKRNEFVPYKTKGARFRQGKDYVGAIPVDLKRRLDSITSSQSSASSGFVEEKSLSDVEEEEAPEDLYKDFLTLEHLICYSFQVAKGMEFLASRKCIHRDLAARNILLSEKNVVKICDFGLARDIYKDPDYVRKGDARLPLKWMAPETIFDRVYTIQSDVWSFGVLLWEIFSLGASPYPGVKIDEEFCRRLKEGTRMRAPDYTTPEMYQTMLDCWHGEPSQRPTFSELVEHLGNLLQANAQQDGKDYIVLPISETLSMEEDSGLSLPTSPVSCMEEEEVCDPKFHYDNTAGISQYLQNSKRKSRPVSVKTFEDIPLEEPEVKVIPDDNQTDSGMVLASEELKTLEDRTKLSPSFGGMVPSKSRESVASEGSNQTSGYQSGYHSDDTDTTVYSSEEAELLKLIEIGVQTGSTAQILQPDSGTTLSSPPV

HCC1954 = assay: Antiproliferative activity against human HCC1954 cells assessed as growth inhibition after 5 days by SRB assay; assay type: functional; conditions: HCC1954, 120 h
Mus musculus = assay: Toxicity in human MDA-MB-468 cells xenografted CB-17 SCID mouse assessed as reduction in body weight at 25 mg/kg, ip qd for 21 days; assay type: organism-based; set-up: dose 25 mg/kg, route intraperitoneal; conditions: in vivo, 504 h
MDA-MB-468 [10] = assay: Antitumor activity against human MDA-MB-468 cells xenografted in CB-17 SCID mouse assessed as reduction in tumor size at 50 mg/kg, ip qd for 21 days; assay type: functional; conditions: MDA-MB-468, ip, 504 h, route intraperitoneal, read-out: TGI
[11] = Permeability of the compound at pH 7.4 by PAMPA; assay type: ADME; conditions: read-out: permeability
Cytochrome P450 3A4 = Cytochrome P450 3A4 (Homo sapiens, UniProt P08684); assay: Inhibition of CYP3A4 (unknown origin) after 10 mins by fluorescence assay; assay type: ADME
Sequence of Cytochrome P450 3A4 (P08684 whole entry): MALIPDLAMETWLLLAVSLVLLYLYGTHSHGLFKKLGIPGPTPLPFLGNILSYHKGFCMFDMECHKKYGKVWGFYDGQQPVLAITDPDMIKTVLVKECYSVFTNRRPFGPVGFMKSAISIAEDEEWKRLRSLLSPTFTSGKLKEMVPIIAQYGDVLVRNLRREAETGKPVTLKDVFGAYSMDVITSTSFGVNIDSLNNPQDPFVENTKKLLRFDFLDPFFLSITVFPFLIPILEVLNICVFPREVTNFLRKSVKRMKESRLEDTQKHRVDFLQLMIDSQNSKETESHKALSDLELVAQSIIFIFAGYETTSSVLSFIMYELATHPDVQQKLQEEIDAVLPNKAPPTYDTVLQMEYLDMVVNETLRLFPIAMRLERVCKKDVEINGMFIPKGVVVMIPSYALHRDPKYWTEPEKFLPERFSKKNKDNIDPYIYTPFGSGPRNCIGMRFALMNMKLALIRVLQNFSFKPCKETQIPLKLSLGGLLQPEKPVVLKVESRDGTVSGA

Sequence of Cytochrome P450 2C9 (P11712 whole entry): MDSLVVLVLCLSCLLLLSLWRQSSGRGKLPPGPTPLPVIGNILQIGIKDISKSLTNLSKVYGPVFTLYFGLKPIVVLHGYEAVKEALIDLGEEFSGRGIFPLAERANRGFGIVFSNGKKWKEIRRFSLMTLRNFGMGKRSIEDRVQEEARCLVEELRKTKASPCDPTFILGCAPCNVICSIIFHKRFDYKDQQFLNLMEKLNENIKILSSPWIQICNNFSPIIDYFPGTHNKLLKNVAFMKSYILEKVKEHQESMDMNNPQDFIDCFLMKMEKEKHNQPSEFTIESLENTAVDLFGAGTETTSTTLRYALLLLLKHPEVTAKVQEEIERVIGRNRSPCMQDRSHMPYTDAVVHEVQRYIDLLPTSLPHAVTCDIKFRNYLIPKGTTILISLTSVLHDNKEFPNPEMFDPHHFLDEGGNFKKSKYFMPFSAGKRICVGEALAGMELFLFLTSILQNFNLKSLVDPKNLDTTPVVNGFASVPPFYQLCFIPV

- IC50 (Cytochrome P450 2C9): 800 nM
- fraction unbound at 4 h [2]: 0.01
- IC50 [3]: > 10 µM
- Cmax [4]: 92 ng/mL
- IC50 (Aurora kinase A): 370 nM
- IC50 (Cytochrome P450 1A2): > 10 µM
- GI50 (MDA-MB-468 [5]): < 10 nM
- IC50 (Aurora kinase B): 210 nM
- IC50 [6]: 180 nM
- AUC [7]: 190 ng·h/mL
- IC50 [8]: > 10 µM
- IC50 [9]: 480 nM
- GI50 (HCC1954): 2300 nM
- Papp [11]: 164 ×10⁻⁶ cm/s
- IC50 (Cytochrome P450 3A4): 10 µM
Compound: COc1ccc2c(c1)/C(=C\c1ccc3c(/C=C/c4ccc(N5CCN(C)CC5)nc4)n[nH]c3c1)C(=O)N2
- inhibition in vivo at 25 mg/kg (MDA-MB-468 [1]): 70%
- Activity (Mus musculus): Non-toxic
- inhibition in vivo at 50 mg/kg (MDA-MB-468 [10]): 120%
